Measured values published in patent US20260091143A1, “NEAR-INFRARED IMAGING AGENT AND USES THEREOF” (CASE WESTERN RESERVE UNIVERSITY, priority 2022, published 2026).
Where no end group is shown, it is not given here.

Experiments:
[1] = test system: LN-229 glioma flank tumor; experiment: In vivo fluorescent imaging of tumor signal in LN-229 flank tumor-bearing nude mice; conditions: for p-value, in vivo tumor ROI mean, ICG vs SBK2-CLE-ICG: ICG 400 nmol/kg vs 300 nmol/kg SBK2-CLE-ICG; for p-value, in vivo tumor ROI mean, ICG vs SBK2-CLE-ICG / p-value, in vivo tumor ROI mean, ICG vs SBK2-ICG / p-value, in vivo tumor ROI mean, ICG vs Scram-CLE-ICG / p-value, in vivo tumor ROI mean, ICG vs Scram-ICG: Welch's t-test; for p-value, in vivo tumor ROI mean, ICG vs SBK2-ICG: ICG 400 nmol/kg vs 300 nmol/kg SBK2-ICG; for p-value, in vivo tumor ROI mean, ICG vs Scram-CLE-ICG: ICG 400 nmol/kg vs 300 nmol/kg Scram-CLE-ICG; for p-value, in vivo tumor ROI mean, ICG vs Scram-ICG: ICG 400 nmol/kg vs 300 nmol/kg Scram-ICG
From the text: (§1) All applicable institutional and/or NIH guidelines for the care and use of animals were followed. The Case Western Reserve University Institutional Animal Care and Use Committee reviewed and approved the animal protocols. Outbred homozygous female nude mice (Fox1^nu/Fox1^nu) were purchased from Jackson Laboratory, Bar Harbor, ME, USA. Details of the human glioblastoma LN-229 cell line have been described previously. LN-229 cells express the PTPμ biomarker and have been used in previous studies for evaluating PTPμ-targeted agents using different imaging modalities. Flank tumors were started in the right flank of mice at approximately 7 weeks of age by injecting a mixture of 2×10^6 cells and Matrigel® Matrix (Corning®, Corning Inc., Corning, NY, USA). Experiments were performed in mice 4 to 8 weeks after implanting the tumors.
(§2) The IVIS Spectrum In vivo Imaging System and Living Image analysis software, (Perkin Elmer, Hopkinton, MA, USA) were used for acquisition and analysis of mouse images. Prior to the experiment, mice were weighed, and baseline images acquired using the appropriate filter sets and the autoexposure setting. Three filter sets for excitation/emission were used: 745 nm/800 nm, 745 nm/820 nm, 745 nm/840 nm. The filter set showing highest fluorescence intensity for a fluorophore was used throughout for that dye. For ICG, 745 nm/820 nm was used and for IRDye® 800CW and Tide Fluor™ 8WS, 745 nm/800 nm was used. Agent stocks were diluted in saline or PBS to ˜100 μM and the volume needed for the desired dose of 300 nmol/kg or 400 nmol/kg calculated. Doses were loaded into polyurethane tubing and connected to a 1 mL syringe as previously described. Mice were anesthetized in an induction chamber with 2% isoflurane-oxygen and moved onto a 37° C. heated platform with a nose cone. 26-gauge veterinary catheters were placed in each tail and the preloaded tubing was connected. Agents were injected over 30 sec, catheters were removed, and animals placed in the prepared Spectrum imaging chamber. Images were acquired beginning 10 min after injecting the agents. For SBK2-CCLE-IR800 and Scram-CCLE-IR800, images were acquired every 10 min for 60 min. For the ICG-labeled and TF8WS-labeled peptides, images were acquired at 10 min, 30 min, 1 h, 2 h, 4 h, 8 h, and 24 h. At the end of the imaging time, the animals were euthanized by CO2 asphyxiation, and the tumor and other organs excised and imaged on the Spectrum.
(§3) Living Image analysis software was used for region of interest (ROI) analysis of the optical data. Images acquired for each time point consist of a fluorescent image superimposed on a photographic image. Binning was set to 1 and in vivo tumor ROIs were manually drawn based on contours visible in the black and white photograph for each timepoint. After outlining the tumor ROIs, fluorescence was measured with the built-in Spectrum function. For excised tumors, kidneys, spleen and liver, ROIs were drawn around the perimeter of the tumor or organ.
(§4) LivingImage software measures fluorescence intensity in units of radiant efficiency. For these analyses, average radiant efficiency measurements in (photons/s/cm^2/steradian)/(μW/cm^2) were used for further comparisons to account for differences in tumor and organ size. GraphPad Prism 9 was used for plots and statistical analyses. Where indicated, means for pairs of agents were compared using a two-tailed t-test with Welch's correction and statistical significance was assumed at p<0.05. Welch's correction was used to eliminate assumptions about variance between the groups being compared.

[2] = RP-HPLC and LC-MS/MS of IRDye 800CW-labeled agent stocks warmed to room temperature; assay type: physicochemical; conditions: RP-HPLC
From the text: The hydrophilic nature and pH sensitivity of the IRDye® 800CW precluded on-resin coupling in the organic solvents and TFA-based cleavage cocktail used for ICG-labeled molecules. IRDye® 800CW maleimide was conjugated in aqueous solution following the manufacturer's recommended protocol to cysteine residues at the N-termini of the peptides and obtained at >95% purity from PolyPeptide Group. Additional LC-MS/MS analyses using an Orbitrap Elite LC-MS, purchased via an NIH shared instrument grant, 1S10RR031537-01, were performed on these agents by the Lerner Research Institute Proteomics Core at the Cleveland Clinic.
Similar to Tide Fluor™ 8WS, the hydrophilic nature of the IRDye® 800CW results in elution of the SBK2-CCLE-IR800 at around 25 min (FIG. 7). In assessing the IRDye® 800CW-labeled agents by RP-HPLC however, a second peak appeared when the SBK2-CCLE-IR800 and Scrambled-CCLE-IR800 stocks were warmed to room temperature. LC-MS/MS analysis was performed and confirmed the identity of the main peak as belonging the agents with the closed succinimide ring, while the second peak, representing around 30% of the material, and eluting slightly earlier than the main peak was identified as containing an open succinimide ring (FIG. 1).

[3] = Whole-body and ventral fluorescent imaging of biodistribution and clearance; assay type: in vivo, mice; conditions: for clearance via the renal system: mouse, in vivo
From the text: as §2

[4] = Ex vivo fluorescence in excised kidneys, spleen and liver; design: species or system mice
From the text: as §2, §3, §4

[5] = test system: LN-229 glioma flank tumor; experiment: Ex vivo fluorescence of excised tumors; assay type: in vivo, mice; conditions: 24 h, ICG-labeled agents 300 nmol/kg, ICG 400 nmol/kg, Welch's t-test
From the text: as §1, §2
Living Image analysis software was used for region of interest (ROI) analysis of the optical data. […] After outlining the tumor ROIs, fluorescence was measured with the built-in Spectrum function. […]
LivingImage software measures fluorescence intensity in units of radiant efficiency. […]

[6] = Kidney, 24 h, ICG-labeled agents 300 nmol/kg, ICG 400 nmol/kg, Welch's t-test
[7] = Liver, 24 h, ICG-labeled agents 300 nmol/kg, ICG 400 nmol/kg, Welch's t-test
[8] = Spleen, 24 h, ICG-labeled agents 300 nmol/kg, ICG 400 nmol/kg, Welch's t-test

Compound: SBK2-CCLE-IR800: IRDye 800CW maleimide conjugated to N-terminal cysteine of C.GGSGGS.GEGDDFNWEQVNTLTKPTSD (SEQ ID NO: 50) ({C(IRDye 800CW maleimide)}-GGSGGSGEGDDFNWEQVNTLTKPTSD)
- difference in in vivo tumor average radiant efficiency vs Scram-CCLE-IR800 ([1]; 400 nmol/kg, every ten minutes for 60 minutes): No significant differences
- specific tumor labeling ([1]; 400 nmol/kg, versus Scrambled control agents): no specific tumor labeling
- second peak containing an open succinimide ring, share of the material [2]: around 30%
- clearance via the renal system [3]: more rapidly than expected

Compound: Scram-CCLE-IR800: IRDye 800CW maleimide conjugated to N-terminal cysteine of C.GGSGGS.GFTQPETGTDNDLWSVDNEK (SEQ ID NO: 51) ({C(IRDye 800CW maleimide)}-GGSGGSGFTQPETGTDNDLWSVDNEK)
- second peak containing an open succinimide ring, share of the material [2]: around 30%
- difference in liver fluorescence vs SBK2-CCLE-IR800 ([4]; 400 nmol/kg, 60 min, liver): No significant difference
- clearance via the renal system [3]: more rapidly than expected

Compound: CC1(C)C(/C=C/C=C/C=C/C=C2\N(CCCCS(=O)(=O)O)c3ccc4ccccc4c3C2(C)C)=[N+](CCCCS(=O)(=O)[O-])c2ccc3ccccc3c21 [ICG, indocyanine green]
- p-value, in vivo tumor ROI mean, ICG vs SBK2-CLE-ICG ([1]; 10 min): <0.001
- p-value, in vivo tumor ROI mean, ICG vs SBK2-ICG ([1]; 10 min): <0.001
- p-value, in vivo tumor ROI mean, ICG vs Scram-CLE-ICG ([1]; 10 min): <0.001
- p-value, in vivo tumor ROI mean, ICG vs Scram-ICG ([1]; 10 min): <0.001
- p-value, in vivo tumor ROI mean, ICG vs SBK2-CLE-ICG ([1]; 30 min): <0.001
- p-value, in vivo tumor ROI mean, ICG vs SBK2-ICG ([1]; 30 min): <0.001
- p-value, in vivo tumor ROI mean, ICG vs Scram-CLE-ICG ([1]; 30 min): <0.001
- p-value, in vivo tumor ROI mean, ICG vs Scram-ICG ([1]; 30 min): <0.001
- p-value, in vivo tumor ROI mean, ICG vs SBK2-CLE-ICG ([1]; 24 h): <0.001
- p-value, in vivo tumor ROI mean, ICG vs SBK2-ICG ([1]; 24 h): <0.001
- p-value, in vivo tumor ROI mean, ICG vs Scram-CLE-ICG ([1]; 24 h): ns
- p-value, in vivo tumor ROI mean, ICG vs Scram-ICG ([1]; 24 h): <0.001
- in vivo tumor fluorescence produced ([1]; ICG dye 400 nmol/kg): very little in vivo tumor fluorescence
- time of peak in vivo tumor signal ([1]; ICG dye 400 nmol/kg): ≤ 10 min
- p-value, average radiant efficiency of excised kidney vs SBK2-CLE-ICG [4, 6]: <0.001
- p-value, average radiant efficiency of excised kidney vs SBK2-ICG [4, 6]: <0.001
- p-value, average radiant efficiency of excised kidney vs Scram-CLE-ICG [4, 6]: 0.008
- p-value, average radiant efficiency of excised kidney vs Scram-ICG [4, 6]: 0.003
- p-value, average radiant efficiency of excised liver vs SBK2-CLE-ICG [4, 7]: 0.004
- p-value, average radiant efficiency of excised liver vs SBK2-ICG [4, 7]: <0.001
- p-value, average radiant efficiency of excised liver vs Scram-CLE-ICG [4, 7]: <0.001
- p-value, average radiant efficiency of excised liver vs Scram-ICG [4, 7]: 0.013
- p-value, average radiant efficiency of excised spleen vs SBK2-CLE-ICG [4, 8]: <0.001
- p-value, average radiant efficiency of excised spleen vs SBK2-ICG [4, 8]: <0.001
- p-value, average radiant efficiency of excised spleen vs Scram-CLE-ICG [4, 8]: <0.001
- p-value, average radiant efficiency of excised spleen vs Scram-ICG [4, 8]: 0.004
- clearance compared to ICG-conjugated peptides ([3]; ICG dye 400 nmol/kg): cleared much more rapidly
- p-value, average radiant efficiency of excised tumor vs SBK2-CLE-ICG [5]: 0.003
- p-value, average radiant efficiency of excised tumor vs SBK2-ICG [5]: <0.001
- p-value, average radiant efficiency of excised tumor vs Scram-CLE-ICG [5]: 0.019
- p-value, average radiant efficiency of excised tumor vs Scram-ICG [5]: 0.003
